Measured values reported in ChEMBL document CHEMBL1201862, “PubChem BioAssay data set” (2004).
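All cell lines were grown in 96-well plates and treated with compound for 48 hours. Here, GI50 denotes the concentration required for 50% inhibition of growth.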 The source made the active and inactive calls. Cut-off read from the data, not from the text of the source: active = GI50 up to about 1.1 µM and inactive = higher.

Columns and labels:
Test in all cases: NCI anticancer screen, dose series, 48 h
[1] = system: KM12
[2] = system: DU-145
[3] = system: U-251
[4] = system: MDA-MB-231
[5] = system: RXF 393
[6] = system: CCRF-CEM
[7] = system: EKVX
[8] = system: SF-268
[9] = system: SNB-19
[10] = system: 786-0
[11] = system: NCI-H460
[12] = system: HCT-15
[13] = system: RPMI-8226
[14] = system: A498
[15] = system: ACHN
[16] = system: CAKI-1
[17] = system: SN12C
[18] = system: PC-3
[19] = system: NCI-H23
[20] = system: NCI-H522

SMILES	GI50 [1]	GI50 [2]	GI50 [3]	GI50 [4]	GI50 [5]	GI50 [6]	GI50 [7]	GI50 [8]	GI50 [9]	GI50 [10]	GI50 [11]	GI50 [12] [µM]	GI50 [13]	GI50 [14]	GI50 [15]	GI50 [16]	GI50 [17]	GI50 [18]	GI50 [19]	GI50 [20]
CC1C(=O)C(C)C(c2ccccc2)N(N=O)C1c1ccccc1 (stereo not given)	> 439 µM (inactive)	173 µM (inactive)	60.1 µM (inactive)	85.3 µM (inactive)	36.9 µM (inactive)	> 662 µM (inactive)	> 100 µM (inactive)	65.2 µM (inactive)	64.4 µM (inactive)	126 µM (inactive)	> 592 µM (inactive)	> 100	> 724 µM (inactive)	247 µM (inactive)	143 µM (inactive)	184 µM (inactive)	400 µM (inactive)	152 µM (inactive)	> 69 µM (inactive)	> 78.3 µM (inactive)
O=C1N[C@@H](c2c[nH]c3ccc(Br)cc23)C(=O)N[C@H]1c1c[nH]c2ccc(Br)cc12	5.06 µM (inactive)	13.8 µM (inactive)	9.35 µM (inactive)	8.87 µM (inactive)	15.6 µM (inactive)	4.11 µM (inactive)	13 µM (inactive)	8.15 µM (inactive)	15.2 µM (inactive)	11.5 µM (inactive)	5.73 µM (inactive)	14.9	7.46 µM (inactive)	5.24 µM (inactive)	3.68 µM (inactive)	12.8 µM (inactive)	12.4 µM (inactive)	3.6 µM (inactive)	10.6 µM (inactive)	6.61 µM (inactive)
CCCCc1ccc(Nc2nc3c(ncn3COCCBr)c(=O)[nH]2)cc1	> 100 µM (inactive)	> 100 µM (inactive)	> 100 µM (inactive)	> 100 µM (inactive)	84.5 µM (inactive)	> 100 µM (inactive)	> 100 µM (inactive)	> 100 µM (inactive)	> 100 µM (inactive)	> 100 µM (inactive)	> 100 µM (inactive)	> 100	> 100 µM (inactive)	> 100 µM (inactive)	> 100 µM (inactive)	> 100 µM (inactive)	> 100 µM (inactive)	> 100 µM (inactive)	> 100 µM (inactive)	> 100 µM (inactive)
NC(=O)c1ccc(NCC2=CC(=O)C=CC2=O)cc1	> 100 µM (inactive)	> 100 µM (inactive)	22 µM (inactive)	20.1 µM (inactive)	18.7 µM (inactive)	7.01 µM (inactive)	16.9 µM (inactive)	22.9 µM (inactive)	> 100 µM (inactive)	19.6 µM (inactive)	> 100 µM (inactive)	19.2	18.7 µM (inactive)	33.9 µM (inactive)	17.7 µM (inactive)	19.1 µM (inactive)	20.2 µM (inactive)	18.6 µM (inactive)	25.9 µM (inactive)	16.3 µM (inactive)
CO[C@@H]1C[C@H]2[C@@H]3CC[C@H]([C@H](C)COC(C)=O)[C@@]3(C)CC[C@@H]2[C@@]2(C)CC[C@H]3C[C@]312	> 100 µM (inactive)	> 100 µM (inactive)	> 100 µM (inactive)	> 100 µM (inactive)	> 100 µM (inactive)	> 100 µM (inactive)	> 100 µM (inactive)	> 100 µM (inactive)	> 100 µM (inactive)	> 100 µM (inactive)	> 100 µM (inactive)	> 100	> 100 µM (inactive)	> 100 µM (inactive)	> 100 µM (inactive)	> 100 µM (inactive)	> 100 µM (inactive)	> 100 µM (inactive)	> 100 µM (inactive)	> 100 µM (inactive)
CCCN(CCc1ccc(-c2ccccc2)cc1)CCc1ccc2nn[nH]c2c1	11.9 µM (inactive)	9.25 µM (inactive)	12.9 µM (inactive)	13.6 µM (inactive)	12.2 µM (inactive)	4.26 µM (inactive)	13.5 µM (inactive)	19.2 µM (inactive)	13.1 µM (inactive)	11.7 µM (inactive)	8.51 µM (inactive)	7.76	4.52 µM (inactive)	17.3 µM (inactive)	12.8 µM (inactive)	12.6 µM (inactive)	13.6 µM (inactive)	9.44 µM (inactive)	12.2 µM (inactive)	11.8 µM (inactive)
CCC1(CC)SCc2nc3ccccc3n21	23.9 µM (inactive)	50 µM (inactive)	37.2 µM (inactive)	29.6 µM (inactive)	32.2 µM (inactive)	33.4 µM (inactive)	27.3 µM (inactive)	52 µM (inactive)	53.2 µM (inactive)	66.4 µM (inactive)	36.9 µM (inactive)	36.2	24.9 µM (inactive)	40.1 µM (inactive)	30.1 µM (inactive)	35.2 µM (inactive)	49.8 µM (inactive)	13.8 µM (inactive)	27.7 µM (inactive)	37.6 µM (inactive)
CC(=O)N(CN1C(=O)CCC1C(=O)O)c1ccccc1 (stereo not given)	> 55.3 µM (inactive)	> 61.4 µM (inactive)	> 100 µM (inactive)	> 48.8 µM (inactive)	> 60.3 µM (inactive)	> 54.2 µM (inactive)	> 53.8 µM (inactive)	> 52.4 µM (inactive)	> 55.1 µM (inactive)	> 53.8 µM (inactive)	> 100 µM (inactive)	> 100	> 55.2 µM (inactive)	> 59.7 µM (inactive)	> 56.6 µM (inactive)	> 57.3 µM (inactive)	> 57.7 µM (inactive)	> 55.8 µM (inactive)	> 56.2 µM (inactive)	> 53 µM (inactive)
CCN(CC)/C(SCc1ccccc1)=C(\C(Cl)=C(Cl)Cl)[N+](=O)[O-]	21 µM (inactive)	18 µM (inactive)	22.9 µM (inactive)	27.1 µM (inactive)	13.1 µM (inactive)	12.5 µM (inactive)	22.9 µM (inactive)	18.4 µM (inactive)	28.9 µM (inactive)	16 µM (inactive)	22.3 µM (inactive)	25.5	14.9 µM (inactive)	13.6 µM (inactive)	16.3 µM (inactive)	28.2 µM (inactive)	21.1 µM (inactive)	21.6 µM (inactive)	17.8 µM (inactive)	16.6 µM (inactive)
O=C(O)CC/C(=N\Nc1nsc2ccccc12)c1ccc(Cl)cc1	22.9 µM (inactive)	30.3 µM (inactive)	18 µM (inactive)	35.6 µM (inactive)	23.5 µM (inactive)	6.84 µM (inactive)	69.5 µM (inactive)	21.9 µM (inactive)	> 64 µM (inactive)	17.8 µM (inactive)	28.4 µM (inactive)	21.1	11 µM (inactive)	37 µM (inactive)	28.2 µM (inactive)	23.3 µM (inactive)	26 µM (inactive)	20.9 µM (inactive)	21.2 µM (inactive)	34.5 µM (inactive)
C=CC(C)(C)n1cc(C2=C(O)C(=O)C(c3c(CC=C(C)C)[nH]c4ccccc34)=C(O)C2=O)c2ccccc21	0.979 µM (active)	1.55 µM (inactive)	1.1 µM (active)	1.81 µM (inactive)	1.74 µM (inactive)	1.92 µM (inactive)	1.91 µM (inactive)	0.548 µM (active)	1.96 µM (inactive)	2 µM (inactive)	1.52 µM (inactive)	1.62	1.64 µM (inactive)	1.57 µM (inactive)	1.56 µM (inactive)	2.39 µM (inactive)	1.57 µM (inactive)	1.73 µM (inactive)	3.03 µM (inactive)	2.3 µM (inactive)
COC(=O)NC(Cc1ccccc1)NC(=O)OC(C)(C)C (stereo not given)	> 100 µM (inactive)	> 100 µM (inactive)	> 100 µM (inactive)	> 100 µM (inactive)	> 100 µM (inactive)	> 100 µM (inactive)	> 100 µM (inactive)	> 100 µM (inactive)	> 100 µM (inactive)	> 100 µM (inactive)	> 100 µM (inactive)	> 100	> 100 µM (inactive)	> 100 µM (inactive)	> 100 µM (inactive)	> 100 µM (inactive)	> 100 µM (inactive)	> 100 µM (inactive)	> 100 µM (inactive)	96.4 µM (inactive)
COc1cccc(C(NC2=NCCC=N2)c2cc3c(cc2O)OCO3)c1O (stereo not given)	32.8 µM (inactive)	> 100 µM (inactive)	17.7 µM (inactive)	23.6 µM (inactive)	23.8 µM (inactive)	10.8 µM (inactive)	> 100 µM (inactive)	34.8 µM (inactive)	46.1 µM (inactive)	12.4 µM (inactive)	29.8 µM (inactive)	14.1	21.5 µM (inactive)	27.7 µM (inactive)	48 µM (inactive)	49.1 µM (inactive)	19.6 µM (inactive)	29.1 µM (inactive)	32.1 µM (inactive)	15.8 µM (inactive)
C=C(C)C(O)C(O)c1c(OC)ccc2ccc(=O)oc12 (stereo not given)	> 100 µM (inactive)	> 100 µM (inactive)	> 100 µM (inactive)	> 100 µM (inactive)	> 100 µM (inactive)	> 100 µM (inactive)	> 100 µM (inactive)	> 100 µM (inactive)	> 100 µM (inactive)	> 100 µM (inactive)	> 100 µM (inactive)	> 100	> 100 µM (inactive)	> 100 µM (inactive)	> 100 µM (inactive)	> 100 µM (inactive)	> 100 µM (inactive)	> 100 µM (inactive)	> 100 µM (inactive)	> 100 µM (inactive)
